From paper PMC10617418, “Identification of tanshinone I as cap-dependent endonuclease inhibitor with broad-spectrum antiviral effect” (Journal of Virology, 2023)
Read-outs that look alike come from different tables or passages of the source.

How the values were obtained:
[1] = cytotoxicity by CCK8 assay; conditions: African green monkey, Vero cells
SFTSV [2] = format: cell-based, severe fever with thrombocytopenia syndrome virus
SFTSV [3] = tested on: SFTSV
SFTSV [4] = assay: microbe, parasite or virus in culture; conditions: Severe fever with thrombocytopenia syndrome virus, Vero, 36 h, read-out: EC50 (Vero) against SFTSV
SFTSV [5] = assay: microbe, parasite or virus in culture; format: cell-based; conditions: Severe fever with thrombocytopenia syndrome virus, Huh-7, 36 h, read-out: EC50 (Huh 7) against SFTSV
[6] = compared with tanshinone IIA; cited from earlier work
SFTSV EndoN [7] = target: T1, SFTSV EndoN (Dabie bandavirus, UniProt I0DF35); format: biochemical
T1 sequence (I0DF35 20-221 limits assumed): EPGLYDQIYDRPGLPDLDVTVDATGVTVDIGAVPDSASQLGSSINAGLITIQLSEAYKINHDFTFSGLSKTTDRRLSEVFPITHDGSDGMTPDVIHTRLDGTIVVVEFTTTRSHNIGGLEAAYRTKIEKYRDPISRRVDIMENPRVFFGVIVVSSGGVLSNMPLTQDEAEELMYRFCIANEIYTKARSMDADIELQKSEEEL

IAV (H1N1) [8] = conditions: mouse, in vivo
SFTSV [9] = conditions: mouse, in vivo
SFTSV EndoN [10] = target: T1, SFTSV EndoN; assay: biochemical
HRTV = assay: microbe, parasite or virus in culture; format: cell-based; conditions: Heartland virus, Vero, 36 h, read-out: EC50 against HRTV
LCMV EndoN = target: T2, LCMV EndoN (Lymphocytic choriomeningitis virus, UniProt P14240); assay: biochemical
T2 sequence (P14240 26-287 limits assumed): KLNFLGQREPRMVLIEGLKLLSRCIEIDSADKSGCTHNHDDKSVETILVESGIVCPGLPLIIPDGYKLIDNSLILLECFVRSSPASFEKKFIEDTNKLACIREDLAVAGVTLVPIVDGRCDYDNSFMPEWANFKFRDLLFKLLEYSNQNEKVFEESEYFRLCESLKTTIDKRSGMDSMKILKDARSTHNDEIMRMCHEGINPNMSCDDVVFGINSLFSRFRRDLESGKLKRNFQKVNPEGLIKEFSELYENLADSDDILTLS

LCMV [11] = assay: organism not typed; format: cell-based, lymphatic choriomeningitis virus; conditions: BHK-21, read-out: EC50 against LCMV
GTV = assay: microbe, parasite or virus in culture; format: cell-based; conditions: Guertu virus, Vero, 36 h, read-out: EC50 against GTV
SFTSV EndoN [12] = target: T1, SFTSV EndoN; assay: biochemical; format: binding
LCMV [13] = conditions: mouse, in vivo
[14] = pharmacokinetic analysis in rats; conditions: 20 mg/kg
IAV (H1N1) [15] = assay: microbe, parasite or virus in culture; format: cell-based; conditions: Influenza A virus, H1N1, MDCK, read-out: EC50 against IAV (H1N1)
water solubility = format: physicochemical
[16] = male, Sprague-Dawley, rat, plasma, ip
[17] = male, Sprague-Dawley, rat, plasma, iv

Row | SMILES | CC50 at 36 h [1] | SI (CC50/EC50) (SFTSV [3]) | EC50 (SFTSV [4]) | EC50 (SFTSV [5]) | stage of action in time-of-addition experiment (SFTSV [2]) | inhibition of cleavage of FAM-labeled ssRNA substrate (SFTSV EndoN [7]) | EC50 (HRTV) | EC50 (LCMV [11]) | EC50 (GTV) | EC50 (IAV (H1N1) [15]) | also measured
1 | Cc1cc(O)c2c(c1)C(=O)c1cc(O)cc(O)c1C2=O [Emodin, emodin] | 145 µM | 53 | 2750 nM | 1070 nM |  |  |  |  |  |  | inhibition of SFTSV in time-of-addition experiment by IFA (SFTSV [2]): significant inhibitory activities under the post-entry and full-time treatment patterns
2 | Cc1c(S(=O)(=O)[O-])oc2c1C(=O)C(=O)c1c-2ccc2c1CCCC2(C)C.[Na+] [tanshinone IIA sulfonate sodium] |  |  |  |  |  |  |  |  |  |  | antiviral activity against SFTSV relative to tanshinone I or IIA (SFTSV [3]): poorer antiviral activity; water solubility [6]: significantly improved water solubility
3 | CC(C)=CCc1cc2c(=O)cc(-c3ccc(O)cc3)oc2cc1O [Licoflavone A, licoflavone A] | 63.8 µM | 23 | 2800 nM | 2500 nM | acted at both the entry and post-entry stages |  |  |  |  |  | 
4 | Cc1coc2c1C(=O)C(=O)c1c-2ccc2c(C)cccc12 [Tanshinone I, tanshinone I] | 245 µM | 121 | 2030 nM | 440 nM | acted at the post-entry stage | significantly inhibited the cleavage | 320 nM | 2920 nM | 450 nM | 1040 nM | influence on body weight (IAV (H1N1) [8]): negligible influence; lung pathology (H&E staining) (IAV (H1N1) [8]): significant pathological remission; viral copies in the lung (IAV (H1N1) [8]): lowered the viral copies in the lung; proinflammatory factors in the lung (IAV (H1N1) [8]; iv): downregulated; body weight change (SFTSV [9]): less than 10%; EC50 (SFTSV EndoN [10]): 308 µM; EC50 (LCMV EndoN): 365 µM; inhibition of SFTSV in time-of-addition experiment by IFA (SFTSV [2]): significant inhibitory activities under the post-entry and full-time treatment patterns; Kd (SFTSV EndoN [12]): 680 µM; influence on body weight (LCMV [13]): negligible influence; viral copies and proinflammatory factors in the liver (LCMV [13]; iv): reduced; bioavailability ([14]; i.g. or i.p., SD rats): poor; AUC(0-t) [14, 16]: 265 ng·h/mL; Cmax [14, 16]: 12.8 ng/mL; Tmax [14, 16]: 2.5 h; half-life [14, 16]: 2100 min; AUC(0-t) [14, 17]: 412 ng·h/mL; Cmax [14, 17]: 284 ng/mL; half-life [14, 17]: 966 min; water solubility (water solubility): poor water solubility
5 | O=C1c2c(O)c(=O)ccn2N([C@@H]2c3ccccc3SCc3c2ccc(F)c3F)[C@@H]2COCCN12 [Baloxavir, baloxavir, reference compound] | 55.2 µM | 10 | 5660 nM |  |  | partially inhibited the cleavage | 1320 nM | 2630 nM | 3740 nM | 1.02 nM | 
6 | COc1c(/C=C/C(=O)c2ccc(O)c(CC=C(C)C)c2)ccc(O)c1O [Licochalcone D, licochalcone D] | 40 µM | 10 | 4000 nM | 4290 nM |  |  |  |  |  |  | 
7 | Cc1coc2c1C(=O)C(=O)c1c-2ccc2c1CCCC2(C)C [Tanshinone IIA, tanshinone IIA] | 242 µM | 85 | 2860 nM |  |  | significantly inhibited the cleavage | 1640 nM | 4640 nM | 1200 nM | 4020 nM | expression of proinflammatory factors (TNF-α, IL-1β, IL-6, IL-18) in blood and spleen (SFTSV [9]): markedly decreased; toxicity in mice (body weight) within 3 days (SFTSV [9]): neither tanshinone IIA nor T-705 exhibited obvious toxicity; viral copies in blood and spleen (SFTSV [9]): effectively reduced; EC50 (SFTSV EndoN [10]): 917 µM; EC50 (LCMV EndoN): 597 µM; Kd (SFTSV EndoN [12]): 740 µM
8 | NC(=O)c1nc(F)c[nH]c1=O [T-705, favipiravir, reference compound] |  |  | ~47000 nM |  | comparable inhibition rate under the post-infection and full-time treatment patterns but had a negligible influence on the virions or at the entry stage |  |  |  |  |  | influence on body weight (IAV (H1N1) [8]): negligible influence; lung pathology (H&E staining) (IAV (H1N1) [8]): significant pathological remission; expression of proinflammatory factors (TNF-α, IL-1β, IL-6, IL-18) in blood and spleen (SFTSV [9]): markedly decreased; toxicity in mice (body weight) within 3 days (SFTSV [9]): neither tanshinone IIA nor T-705 exhibited obvious toxicity; viral copies in blood and spleen (SFTSV [9]): effectively reduced; influence on body weight (LCMV [13]): negligible influence
9 | COc1c(CC=C(C)C)c(O)cc2oc(=O)c(-c3ccc(O)cc3O)cc12 [Glycycoumarin, glycycoumarin] | 46.3 µM | 25 | 1860 nM | 3750 nM |  |  |  |  |  |  | 
10 | CC(C)=CCc1c(O)ccc(-c2coc3cc(O)cc(O)c3c2=O)c1O [Licoisoflavone A, licoisoflavone A] | 167 µM | 44 | 3800 nM | 1530 nM |  |  |  |  |  |  | 
